Laboratory results published in US20030138500A1 (priority 2001, published 2003).

Tests used:
Type in all cases: in vivo
[1] = tested on: twospotted spider mites, Tetranychus urticae Koch; experiment: Mortality of adult twospotted spider mites on bush bean leaves after spray treatment; conditions: two days after treatment, concentration in label
Protocol: Adult twospotted spider mites, Tetranychus urticae Koch, were obtained from a colony and 25 mites per leaf were placed on bush bean plants (one leaf per replicate). Mites were allowed to settle overnight and then treatments were applied to wetting on top and bottom leaf surfaces using a hand-held trigger sprayer. After treatment, plants were randomized on a lab bench in a randomized block design. Treatments consisted of 9 replicates of 1 plant each. Mortality was assessed 2 days following treatment.
Adult twospotted spider mites, Tetranychus urticae Koch, were obtained from a colony and 25 mites per leaf were placed on bush bean plants (one leaf per replicate). Mites were allowed to settle overnight and then treatments were applied to wetting on top and bottom leaf surfaces using a hand-held trigger sprayer. After treatment, plants were randomized on a lab bench in a randomized block design. Treatments consisted of 10 replicates of 1 plant each. Mortality was assessed 2 days following treatment.

[2] = tested on: Green peach aphids, Myzus persicae (Sulzer); experiment: Mortality of green peach aphids sprayed on plate glass (60 seconds exposure); conditions: Example 12, Table 12; after 1 day; concentration in label
Protocol: Green peach aphids, Myzus persicae (Sulzer), were obtained from a colony and transferred to plate glass for treatment. Treatments were then applied with a hand-held trigger sprayer to wetting and aphids remained exposed to treatments for 60 seconds. After treatment, aphids were transferred to filter paper lined petri dishes and dishes were randomized on a lab bench in a completely randomized design. Treatments consisted of 10 replicates of 10 aphids each. Mortality was assessed after 1 day.

[3] = tested on: green peach aphid, Myzus persicae (Sulzer); experiment: Mortality of green peach aphids on infested radish plants after spray treatment; conditions: Example 4, Table 4, after 2 days, concentration in label
Protocol: Radish plants were placed in a colony for 4 days for infestation with green peach aphid, Myzus persicae (Sulzer). Treatments were then applied with a hand-held trigger sprayer to wetting on all leaf surfaces. After treatment, plants were randomized on a lab bench in a completely randomized block design. Treatments consisted of 8 replicates of 1 plant each. Mortality was assessed after 2 days by counting the live and dead aphids on all leaves.

In the case of CC1(C)C(C=C(Cl)Cl)C1C(=O)OCc1cccc(Oc2ccccc2)c1 (centres unmarked) [Permethrin], the “Observed % Mortality” value ([1]; Example 11, Table 11, adult female mites on bush bean) is reported as 26.2% and the “Observed % Mortality” value [2] is reported as 84.0%.

With S1SSSSSSS1 [Powdered Sulfur (0.2% ai sulfur), Sulfur] the “Observed % Mortality” value [3] was 1.3%, the “Observed % Mortality” value ([1]; Example 2, Table 2, adult female mites on bush bean) was 4.5% and the “Observed % Mortality” value ([1]; Example 3, Table 3, mites on bush bean) was 2.6%.
